From PubChem BioAssay (NCI)
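These data come from cells grown in 96-well plates and exposed to compound for 48 hours at five concentrations. The concentration for 50% growth inhibition is given as GI50. Definition used: TGI = concentration required for complete inhibition of growth.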

Key:
Assay in all cases: NCI anticancer screen, dose series, 48 h; in the data active = GI50 below about 0.43 µM; inactive = the rest
[1] = system: MDA-MB-231 breast
[2] = system: SF-268 CNS
[3] = system: MALME-3M melanoma
[4] = system: RXF 393 renal
[5] = system: SNB-19 CNS
[6] = system: SK-MEL-28 melanoma
[7] = system: T-47D breast
[8] = system: SW-620 colon
[9] = system: COLO 205 colon
[10] = system: RPMI-8226 leukemia
[11] = system: UACC-62 melanoma
[12] = system: SK-MEL-5 melanoma
[13] = system: OVCAR-5 ovarian
[14] = system: A549 NSCLC
[15] = system: SN12C renal
[16] = system: 786-0 renal
[17] = system: A498 renal
[18] = system: SF-295 CNS
[19] = system: TK-10 renal
[20] = system: SK-MEL-2 melanoma
[21] = system: SNB-75 CNS
[22] = system: MOLT-4 leukemia
[23] = system: M14 melanoma
[24] = system: HOP-62 NSCLC
[25] = system: NCI-H23 lung
[26] = system: LOX IMVI melanoma
[27] = system: HS 578T breast
[28] = system: NCI-H460 lung
[29] = system: ACHN renal
[30] = system: DU-145 prostate
[31] = system: NCI-H522 lung
[32] = system: HL-60(TB) leukemia
[33] = system: HCT-116 colon
[34] = system: PC-3 prostate
[35] = system: MCF7 breast
[36] = system: OVCAR-4 ovarian
[37] = system: K-562 leukemia
[38] = system: OVCAR-3 ovarian
[39] = system: HOP-92 NSCLC
[40] = system: BT-549 breast
[41] = system: CAKI-1 renal
[42] = system: UO-31 renal
[43] = system: U251 CNS
[44] = system: NCI/ADR-RES ovarian
[45] = system: CCRF-CEM leukemia
[46] = system: HCT-15 colon
[47] = system: SR leukemia
[48] = system: SK-OV-3 ovarian
[49] = system: EKVX NSCLC
[50] = system: OVCAR-8 ovarian
[51] = system: SF-539 CNS
[52] = system: HCC-2998 colon
[53] = system: KM12 colon
[54] = system: IGROV1 ovarian
[55] = system: MDA-MB-435
[56] = system: UACC-257 melanoma
[57] = system: HT29 colon
[58] = system: NCI-H226 lung

COc1ccc([C@H]2[C@H](O)C(=O)N2c2cc(OC)c(OC)c(OC)c2)cc1F
> 100 µM: TGI [1] | TGI [2] | TGI [3] | TGI [5] | TGI [6] | TGI [7] | TGI [8] | TGI [11] | TGI [13] | TGI [14] | TGI [15] | TGI [16] | TGI [17] | TGI [18] | TGI [19] | TGI [22] | TGI [23] | TGI [24] | TGI [25] | TGI [26] | TGI [27] | TGI [29] | TGI [30] | TGI [33] | TGI [34] | TGI [35] | TGI [36] | TGI [37] | TGI [38] | TGI [39] | TGI [41] | TGI [42] | TGI [43] | TGI [45] | TGI [46] | TGI [47] | TGI [48] | TGI [49] | TGI [53] | TGI [54] | TGI [56]
> 94.8 µM: TGI [20]
12 nM: TGI [12]
inactive: GI50 [7] > 100 µM | GI50 [17] > 100 µM | GI50 [19] > 100 µM | GI50 [36] 546 nM
> 39.1 µM: TGI [28]
> 34.5 µM: TGI [10]
active: GI50 [1] < 10 nM | GI50 [2] < 10 nM | GI50 [3] < 10 nM | GI50 [4] < 10 nM | GI50 [5] < 10 nM | GI50 [6] < 10 nM | GI50 [8] < 10 nM | GI50 [9] < 10 nM | GI50 [10] < 10 nM | GI50 [11] < 10 nM | GI50 [12] < 10 nM | GI50 [13] < 10 nM | GI50 [14] < 10 nM | GI50 [15] < 10 nM | GI50 [16] < 10 nM | GI50 [18] < 10 nM | GI50 [20] < 10 nM | GI50 [21] < 10 nM | GI50 [22] < 10 nM | GI50 [23] < 10 nM | GI50 [24] < 10 nM | GI50 [25] < 10 nM | GI50 [26] < 10 nM | GI50 [27] < 10 nM | GI50 [28] < 10 nM | GI50 [29] < 10 nM | GI50 [30] < 10 nM | GI50 [31] < 10 nM | GI50 [32] < 10 nM | GI50 [33] < 10 nM | GI50 [34] < 10 nM | GI50 [35] < 10 nM | GI50 [37] < 10 nM | GI50 [38] < 10 nM | GI50 [40] < 10 nM | GI50 [41] < 10 nM | GI50 [42] < 10 nM | GI50 [43] < 10 nM | GI50 [44] < 10 nM | GI50 [45] < 10 nM | GI50 [46] < 10 nM | GI50 [47] < 10 nM | GI50 [48] < 10 nM | GI50 [50] < 10 nM | GI50 [51] < 10 nM | GI50 [52] < 10 nM | GI50 [53] < 10 nM | GI50 [54] < 10 nM | GI50 [55] < 10 nM | GI50 [57] < 10 nM | GI50 [58] < 10 nM
< 10 nM: TGI [9] | TGI [31] | TGI [51] | TGI [55] | TGI [57]
